Measurements published in ChEMBL document CHEMBL5390277, “Development of N-Terminally Modified Variants of the CXCR4-Antagonistic Peptide EPI-X4 for Enhanced Plasma Stability” (J Med Chem, 2023).
pIC50: −log10 of the molar value. Square brackets hold non-standard residues; d marks the D form. Peptide text beside a SMILES is read from it.

Columns and labels:
SUP-T1 = assay: Inhibition of cell migration in human SUP-T1 cells assessed as inhibition of CXCL12 mediated cell migration incubated for 4 hrs in presence of chemoattractant, CXCL12 by Transwell based CellTiter-Glo-chemotaxis assay; format: functional
[1] = Toxicity in Zebrafish embryo incubated for 24 hrs by microscopic analysis; parameters: species or system Danio rerio; details: in vivo
[2] = molecular target: T1, C-X-C chemokine receptor type 4 (Homo sapiens, UniProt P61073); assay: Displacement of 12G5 mAb from CXCR4 in human SUP-T1 cells incubated for 2 hrs by flow cytometry analysis; format: cell-based
T1 sequence (P61073 whole entry): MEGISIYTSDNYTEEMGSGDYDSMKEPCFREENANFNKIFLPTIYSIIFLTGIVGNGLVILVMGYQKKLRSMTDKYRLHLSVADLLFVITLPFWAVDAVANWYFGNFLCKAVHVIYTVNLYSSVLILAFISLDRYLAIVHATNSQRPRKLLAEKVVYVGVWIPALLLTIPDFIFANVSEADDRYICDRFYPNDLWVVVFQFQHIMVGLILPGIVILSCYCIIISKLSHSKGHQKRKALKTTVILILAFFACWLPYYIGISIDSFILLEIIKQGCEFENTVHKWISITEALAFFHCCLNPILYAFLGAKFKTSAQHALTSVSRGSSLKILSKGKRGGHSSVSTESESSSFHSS

[3] = molecular target: T1, C-X-C chemokine receptor type 4; assay: Antagonist activity at CXCR4 in human SUP-T1 cells assessed as inhibition of CXCL12-induced ERK phosphorylation preincubated with 15 mins followed by CXCL12 stimulation and measured after 12 mins by flow cytometry analysis; format: functional, cell-based
[4] = tested on: Human immunodeficiency virus 1; assay: Antiviral activity against HIV-1 NL4-3 infected in human TZM-bl cells assessed as inhibition of viral replication preincubated for 15 mins followed by viral infection and measured after 4320 mins by beta-gal screening assay; format: functional, organism-based; details: Human immunodeficiency virus 1, NL4-3, TZM
[5] = molecular target: T1, C-X-C chemokine receptor type 4; assay: Antagonist activity at CXCR4 (unknown origin) expressed in human HEK293T cells co-expressing SmBiT-beta-arrestin2 preincubated with compound for 10 mins followed by CXCL12 stimulation and measured for 120 mins by beta-arrestin2 recruitment based NanoBiT assay; format: functional, cell-based

| pIC50 [2] | pIC50 [3] | pIC50 [4] | SMILES | inhibition (SUP-T1) | Activity [1] | pIC50 [5] |
| --- | --- | --- | --- | --- | --- | --- |
| 5.11 | 4.77 | < 5.00 | CC[C@@H](C)[C@@H](NC(C)=O)C(=O)N[C@@H](CC(C)C)C(=O)N[C@@H](CCCNC(=N)N)C(=O)N[C@@H](Cc1c[nH]c2ccccc12)C(=O)N[C@@H](CO)C(=O)N[C@@H](CCCNC(=N)N)C(=O)N[C@@H](CCCCN)C(=O)N[C@@H](CC(C)C)C(=O)N1CCC[C@H]1C(=O)N[C@@H](CS)C(=O)N[C@H](C(=O)N[C@@H](CO)C(=O)O)C(C)C | – | – | – |
| 5.76 | < 4.00 | 6.36 | CC[C@H](C)[C@H](N)C(=O)N[C@H](CC(C)C)C(=O)N[C@@H](CCCNC(=N)N)C(=O)N[C@@H](Cc1c[nH]c2ccccc12)C(=O)N[C@@H](CO)C(=O)N[C@@H](CCCNC(=N)N)C(=O)N[C@@H](CCCCN)C(=O)N[C@@H](CC(C)C)C(=O)N1CCC[C@H]1C(=O)N[C@@H](CS)C(=O)N[C@H](C(=O)N[C@@H](CO)C(=O)O)C(C)C | – | – | – |
| 5.58 | 4.38 | 5.78 | CC[C@H](C)[C@H](NC(C)=O)C(=O)N[C@@H](CC(C)C)C(=O)N[C@@H](CCCNC(=N)N)C(=O)N[C@@H](Cc1c[nH]c2ccccc12)C(=O)N[C@@H](CO)C(=O)N[C@@H](CCCNC(=N)N)C(=O)N[C@@H](CCCCN)C(=O)N[C@@H](CC(C)C)C(=O)N1CCC[C@H]1C(=O)N[C@@H](CS)C(=O)N[C@H](C(=O)N[C@@H](CO)C(=O)O)C(C)C | – | – | – |
| 6.98 | 5.14 | 6.89 | CSCC[C@H](NC(=O)[C@@H](N)CCSC)C(=O)N[C@@H](CCCNC(=N)N)C(=O)N[C@@H](Cc1c[nH]c2ccccc12)C(=O)N[C@@H](CO)C(=O)N[C@@H](CCCNC(=N)N)C(=O)N[C@@H](CCCCN)C(=O)N[C@@H](CCSC)C(=O)N1CCC[C@H]1C(=O)N[C@@H](CS)C(=O)N[C@H](C(=O)N[C@@H](CO)C(=O)O)C(C)C (H-MMRWSRKMPCVS-OH) | – | – | – |
| 5.84 | < 4.00 | 6.09 | CSCC[C@H](NC(=O)[C@H](CCCCN)NC(=O)[C@H](CCCNC(=N)N)NC(=O)[C@H](CO)NC(=O)[C@H](Cc1c[nH]c2ccccc12)NC(=O)[C@H](CCCNC(=N)N)NC(=O)[C@H](CC(C)C)NC(=O)[C@H](N)Cc1ccccc1)C(=O)N1CCC[C@H]1C(=O)N[C@@H](CS)C(=O)N[C@H](C(=O)N[C@@H](CO)C(=O)O)C(C)C | – | – | – |
| 6.53 | 5.36 | 6.67 | CC(C)C[C@H](NC(=O)[C@@H](N)C(C)C)C(=O)N[C@@H](CCCNC(=N)N)C(=O)N[C@@H](Cc1c[nH]c2ccccc12)C(=O)N[C@@H](CO)C(=O)N[C@@H](CCCNC(=N)N)C(=O)N[C@@H](CCCCN)C(=O)N[C@@H](CC(C)C)C(=O)N1CCC[C@H]1C(=O)N[C@@H](CS)C(=O)N[C@H](C(=O)N[C@@H](CO)C(=O)O)C(C)C | – | – | – |
| 4.79 | < 4.00 | 5.39 | CSCC[C@H](NC(=O)[C@H](CCCCN)NC(=O)[C@H](CCCNC(=N)N)NC(=O)[C@H](CO)NC(=O)[C@H](Cc1c[nH]c2ccccc12)NC(=O)[C@H](CCCNC(=N)N)NC(=O)[C@H](CC(C)C)NC(=O)[C@H](CO)NC(C)=O)C(=O)N1CCC[C@H]1C(=O)N[C@@H](CS)C(=O)N[C@H](C(=O)N[C@@H](CO)C(=O)O)C(C)C | – | – | – |

The remaining lines, values behind:

| SMILES | pIC50 [2] | pIC50 [3] | pIC50 [4] | inhibition (SUP-T1) | Activity [1] | pIC50 [5] |
| --- | --- | --- | --- | --- | --- | --- |
| CSCC[C@H](NC(=O)[C@H](N)CC(C)C)C(=O)N[C@@H](CCCNC(=N)N)C(=O)N[C@@H](Cc1c[nH]c2ccccc12)C(=O)N[C@@H](CO)C(=O)N[C@@H](CCCNC(=N)N)C(=O)N[C@@H](CCCCN)C(=O)N[C@@H](CCSC)C(=O)N1CCC[C@H]1C(=O)N[C@@H](CS)C(=O)N[C@H](C(=O)N[C@@H](CO)C(=O)O)C(C)C (H-[dL]MRWSRKMPCVS-OH) | – | – | – | Dose-Dependent Effect | Non-Toxic | – |
| CSCC[C@H](NC(C)=O)C(=O)N[C@@H](CC(C)C)C(=O)N[C@@H](CCCNC(=N)N)C(=O)N[C@@H](Cc1c[nH]c2ccccc12)C(=O)N[C@@H](CO)C(=O)N[C@@H](CCCNC(=N)N)C(=O)N[C@@H](CCCCN)C(=O)N[C@@H](CC(C)C)C(=O)N1CCC[C@H]1C(=O)N[C@@H](CS)C(=O)N[C@H](C(=O)N[C@@H](CO)C(=O)O)C(C)C | – | – | < 5.00 | – | – | – |
| CSCC[C@H](NC(=O)CN)C(=O)N[C@@H](CCCNC(=N)N)C(=O)N[C@@H](Cc1c[nH]c2ccccc12)C(=O)N[C@@H](CO)C(=O)N[C@@H](CCCNC(=N)N)C(=O)N[C@@H](CCCCN)C(=O)N[C@@H](CCSC)C(=O)N1CCC[C@H]1C(=O)N[C@@H](CS)C(=O)N[C@H](C(=O)N[C@@H](CO)C(=O)O)C(C)C (H-GMRWSRKMPCVS-OH) | 5.06 | < 4.00 | 5.18 | – | – | – |
| CC(C)C[C@H](NC(=O)[C@H](N)C(C)C)C(=O)N[C@@H](CCCNC(=N)N)C(=O)N[C@@H](Cc1c[nH]c2ccccc12)C(=O)N[C@@H](CO)C(=O)N[C@@H](CCCNC(=N)N)C(=O)N[C@@H](CCCCN)C(=O)N[C@@H](CC(C)C)C(=O)N1CCC[C@H]1C(=O)N[C@@H](CS)C(=O)N[C@H](C(=O)N[C@@H](CO)C(=O)O)C(C)C | 6.04 | – | 6.16 | – | – | – |
| CSCC[C@H](NC(=O)[C@H](CCCCN)NC(=O)[C@H](CCCNC(=N)N)NC(=O)[C@H](CO)NC(=O)[C@H](Cc1c[nH]c2ccccc12)NC(=O)[C@H](CCCNC(=N)N)NC(=O)[C@H](CC(C)C)NC(=O)[C@H](N)CC(C)C)C(=O)N1CCC[C@H]1C(=O)N[C@@H](CS)C(=O)N[C@H](C(=O)N[C@@H](CO)C(=O)O)C(C)C (H-[dL]LRWSRKMPCVS-OH) | 6.51 | 5.44 | 6.82 | Dose-Dependent Effect | Non-Toxic | 6.59 |
| CC[C@H](C)[C@H](N)C(=O)N[C@H](CC(C)C)C(=O)N[C@@H](CCCNC(=N)N)C(=O)N[C@@H](Cc1c[nH]c2ccccc12)C(=O)N[C@@H](CO)C(=O)N[C@@H](CCCNC(=N)N)C(=O)N[C@@H](CCCCN)C(=O)N[C@@H](CCSC)C(=O)N1CCC[C@H]1C(=O)N[C@@H](CS)C(=O)N[C@H](C(=O)N[C@@H](CO)C(=O)O)C(C)C | 6.00 | < 4.00 | 6.03 | – | – | – |
| CSCC[C@H](NC(=O)[C@H](CCCCN)NC(=O)[C@H](CCCNC(=N)N)NC(=O)[C@H](CO)NC(=O)[C@H](Cc1c[nH]c2ccccc12)NC(=O)[C@H](CCCNC(=N)N)NC(=O)[C@H](CC(C)C)NC(=O)[C@@H](CO)NC(C)=O)C(=O)N1CCC[C@H]1C(=O)N[C@@H](CS)C(=O)N[C@H](C(=O)N[C@@H](CO)C(=O)O)C(C)C | 5.06 | < 4.00 | 6.11 | – | – | – |
| CSCC[C@H](NC(=O)[C@H](CCCCN)NC(=O)[C@H](CCCNC(=N)N)NC(=O)[C@H](CO)NC(=O)[C@H](Cc1c[nH]c2ccccc12)NC(=O)[C@H](CCCNC(=N)N)NC(=O)[C@@H](CC(C)C)NC(=O)[C@@H](N)CCSC)C(=O)N1CCC[C@H]1C(=O)N[C@@H](CS)C(=O)N[C@H](C(=O)N[C@@H](CO)C(=O)O)C(C)C | 6.08 | – | – | – | – | – |
| CC(C)C[C@H](NC(=O)[C@@H](NC(=O)[C@@H]1CCCN1C(=O)[C@@H](NC(=O)[C@H](CO)NC(=O)[C@@H](NC(=O)[C@H](CCC(N)=O)NC(=O)[C@@H]1CCCN1C(=O)[C@@H](NC(=O)[C@H](CCCCN)NC(=O)[C@H](CCCCN)NC(=O)[C@@H](NC(=O)[C@H](Cc1ccc(O)cc1)NC(=O)[C@H](CCCNC(=N)N)NC(=O)[C@@H](NC(=O)[C@@H](N)CC(C)C)C(C)C)[C@@H](C)O)C(C)C)C(C)C)[C@@H](C)O)[C@@H](C)O)C(=O)O (H-LVRYTKKVPQVSTPTL-OH) | 5.58 | < 4.00 | < 5.00 | – | – | – |
| CC[C@@H](C)[C@@H](N)C(=O)N[C@@H](CC(C)C)C(=O)N[C@@H](CCCNC(=N)N)C(=O)N[C@@H](Cc1c[nH]c2ccccc12)C(=O)N[C@@H](CO)C(=O)N[C@@H](CCCNC(=N)N)C(=O)N[C@@H](CCCCN)C(=O)N[C@@H](CC(C)C)C(=O)N1CCC[C@H]1C(N)=O (H-[dI]LRWSRKLP-NH2) | 6.34 | 5.34 | 6.26 | Dose-Dependent Effect | Non-Toxic | 6.93 |
| CSCC[C@H](NC(=O)[C@H](N)Cc1ccccc1)C(=O)N[C@@H](CCCNC(=N)N)C(=O)N[C@@H](Cc1c[nH]c2ccccc12)C(=O)N[C@@H](CO)C(=O)N[C@@H](CCCNC(=N)N)C(=O)N[C@@H](CCCCN)C(=O)N[C@@H](CCSC)C(=O)N1CCC[C@H]1C(=O)N[C@@H](CS)C(=O)N[C@H](C(=O)N[C@@H](CO)C(=O)O)C(C)C | 5.83 | < 4.00 | 5.77 | Dose-Dependent Effect | – | – |
| c1cc(CN2CCCNCCNCCCNCC2)ccc1CN1CCCNCCNCCCNCC1 | – | – | 7.52 | Dose-Dependent Effect | – | – |
| CSCC[C@@H](NC(C)=O)C(=O)N[C@@H](CC(C)C)C(=O)N[C@@H](CCCNC(=N)N)C(=O)N[C@@H](Cc1c[nH]c2ccccc12)C(=O)N[C@@H](CO)C(=O)N[C@@H](CCCNC(=N)N)C(=O)N[C@@H](CCCCN)C(=O)N[C@@H](CC(C)C)C(=O)N1CCC[C@H]1C(=O)N[C@@H](CS)C(=O)N[C@H](C(=O)N[C@@H](CO)C(=O)O)C(C)C | – | – | < 5.00 | – | – | – |
